How the values were obtained:
[1] = low, dose dependent; cited from earlier work
[2] = system: phospho-ERK; experiment: Western blot of ERK phosphorylation in HPAF-11 pancreatic tumor cells; format: cell-based, human; conditions: HPAF-11 cells, 48 hours, DMEM 10% FBS, western blot (FIG. 3)
Protocol: Cells were treated for 48 hours with indicated concentrations of COMPOUND A in DMEM containing 10% FBS. Phosphorylation of ERK was assessed by western blot using antibodies that detect total and phospho-ERK. Actin detection was used as a loading control for total lysate protein.

[3] = system: HPAF-II (pancreatic) tumor cells; experiment: MTT cell viability assay with HPAF-II pancreatic tumor cells; format: cell-based, human
Protocol: MTT Cell Viability Assay with HPAF-II (Pancreatic) Tumor Cells—
10 mM of COMPOUND A stock solution was made by dissolving the 8.2 mg of powder form of COMPOUND A in 1.468 mL of DMSO to form the stock solution. The stock solution was aliquoted to 0.6 mL microcentrifuge tubes with 20 μl of solution in each microcentrifuge tube.
Pancreatic cancer cell line HPAF-II was seeded in a 96-well plate with 5000 cells/well and incubated overnight at 37° C. The next day, cells were treated triplicate by removing cell media and replaced with fresh media containing COMPOUND A alone at increasing concentrations (10 μM, 20 μM, 20 μM, 50 μM, 75 μM, 100 μM 125 μM 150 μM, 175 μM 200 μM) as well as the combination of the 10 μM of COMPOUND A and Gemcitabine at increasing concentrations (0 μM, 0.01 μM, 0.05 μM, 0.1 μM, 0.5 μM, 1 μM, 5 μM, 10 μM). Drug vehicle (DMSO, Sigma) was used as a control for the treatment. Cells were then left to grow in the presence of the drugs for the following 72 hours.
After 72 hours, the media was discarded and the cells were incubated with MTT (3-(4,5-Dimethylthiazol-2-yl)-2,5-diphenyltetrazolim bromide) solution (5 mg/ml stock) at working concentration of 0.5 mg/ml in fresh cell growth media for 2 hours at 37° C. The reaction was stopped when the majority of the cells was stained. MTT solution was then aspirated and the plate was left to dry for several hour. Stained cells were then resuspended in 70 μl of DMSO and mixed well. The absorbance was read with the use of a plate reading spectrophotometer at the 570 nm. The CompuSyn data for the drug combination of COMPOUND A and Gemcitabine in each cell line was generated and analysed using the CompuSyn software which was set up by […] and published by ComboSyn, Inc.

[4] = system: NCIH727 (lung) tumor cells; experiment: CELLTITER-GLO cell viability assay, H727; format: cell-based, human
Protocol: (§1) CELLTITER-GLO® Cell Viability Assay (a homogeneous method of determining the number of viable cells in culture based on quantitation of the ATP present, an indicator of metabolically active cells)
(§2) MKN1 (gastric), PC3 (prostate), NCIH727 (lung), and HCT116 (colorectal) tumor cell lines; Control=0.1% DMSO
(§3) To prepare 10 mM FL41 stock from powder dissolve 4.1 mg of FL41 powder into 0.74 ml DMSO-aliquot and store at −20 C until use DMSO-stock from Sigma or other suitable vendor-must be reagent or ACS grade or better.
(§4) Place 5000 cells per well (200 ul) in duplicate in their preferred media as shown in 96-well plate diagram immediately below. Reduce the final FBS (serum) concentration to 5% before adding cells to media. Incubate cells overnight and then remove old media carefully and add fresh media with 5% FBS and then either add DMSO alone, COMPOUND A alone or in combination with GEM (gemcitabine) in wells where noted at the final concentrations noted. Incubate the cells at 37 C in CO2 incubator for an additional 72 hours in presence of compounds. At the end of the 72-hour period add Promega Titerglo reagent to the wells and then measure luminescence to assess relative cell number.

[5] = system: MKN1 (gastric) tumor cells; experiment: CELLTITER-GLO cell viability assay, MKN1; format: cell-based, human
Protocol: as §1, §2, §3, §4

[6] = system: HCT116 (colorectal) tumor cells; experiment: CELLTITER-GLO cell viability assay, HCT116; format: cell-based, human; conditions: COMPOUND A alone, 72 hours, 5% FBS (FIG. 6)
Protocol: as §1, §2, §3, §4

[7] = system: PC3 (prostate) tumor cells; experiment: CELLTITER-GLO cell viability assay, PC3; format: cell-based, human; conditions: COMPOUND A alone, 72 hours, 5% FBS
Protocol: as §1, §2, §3, §4

Compound: C=C(C)[C@@H]1CCC(C)=C[C@H]1c1c(O)cc(CCCCC)cc1O [CBD, Cannabidiol]
- oral and oromucosal bioavailability [1]: about 35%

Compound: C=C(C)[C@@H]1CCC(C)=C[C@H]1c1c(O)cc(CCCCC)cc1OC(=O)N[C@@H](C)C(=O)N[C@@H](CCC(=O)O)C(=O)O [COMPOUND A]
- phospho-ERK levels in tumor cells as compared to control [2]: effectively decrease phospho-ERK levels
- growth of HPAFII (pancreatic) tumor cell line as compared to control ([3]; COMPOUND A alone): inhibit the growth
- increase in rate of the cell kill vs Compound A or gemcitabine alone ([3]; HPAF-II, 10 μM COMPOUND A combined with gemcitabine, 72 hours (FIG. 2)): at least 10%
- kill of the pancreatic tumor cells ([3]; HPAF-II, 50 μM, 72 hours, MTT (FIG. 1)): ≥ 50%
- kill of the tumor cells ([3]; HPAF-II, about 175 μM, 72 hours, MTT (FIG. 1)): more than 80%
- growth of H727 (lung) tumor cell line as compared to control ([4]; COMPOUND A alone, 72 hours, 5% FBS (FIG. 7)): inhibit the growth
- effect on gemcitabine growth inhibition of human h727 lung tumor cells ([4]; combination with gemcitabine, 72 hours (FIG. 8)): potentiates
- growth of MKN1 (gastric) tumor cell line as compared to control ([5]; COMPOUND A alone, 72 hours, 5% FBS (FIG. 4)): inhibit the growth
- effect on gemcitabine growth inhibition of human mkn1 gastric tumor cells ([5]; combination with gemcitabine, 72 hours (FIG. 5)): synergistic impact
- growth of HCT116 (colorectal) tumor cell line as compared to control [6]: inhibit the growth
- growth of PC3 (prostate) tumor cell line as compared to control [7]: inhibit the growth

— patent US11980602B2, “Cannabinoid prodrug compounds” (Firstlight Pharmaceuticals LLC, priority 2019, dated 2024)
